Data published in patent US5670482A, “Neuropeptide Y antagonists” (Glaxo Wellcome Inc., priority 1992, dated 1997).
Positions of bridges follow the written chain, without caps; N, C: chain ends. Chains are numbered I, II in the order given. No end group written: not given here.

Test system: NPY-induced increase of perfusion pressure in isolated perfused rat kidney
Experiment: Isolated perfused rat kidney preparation
Details: antagonist infused during 5 min, read-out: IC50 for the inhibition of the NPY-induced increase of perfusion pressure
Protocol: Male CD rats (200-400 g) are anaesthetised with a mixture of Acepromazine (2.8 mg/kg) and Kenamine (112 mg/kg) injected i.p. The rat's abdomen is opened through the midline. The renal arteries and descending aorta are cleaned and, with minimal disruption of blood flow, one kidney is cannulated through the proximal renal artery using a stainless steel 20G blunt-tipped needle attached to Tygon tubing and a peristaltic pump. As soon as the first ligature is complete and perfusion of the kidney starts (10 ml/min) and the kidney is removed from the animal and placed in a constant temperature perfusion chamber. The perfusion pressure is followed by an on-line Statham pressure transducer and changes recorded in a Grass Polygraph.
Administration of Drugs: Neuropeptide Y and other agonists are administered by a single bolus injection (0.1 ml) through an injection port situated about 6 inches from the tip of the needle (approximately 0.3 ml, total volume). Antagonists are infused during 5 min (0.15 ml/min) into the kidney through an injection port situtated before the perfusion pump to allow for good mixing and constant concentration (dilution of 0.15 ml into 10 ml). […]
Results: Using the above experimental procedure we have determined the IC50 for the inhibition of the NPY-induced increase of perfusion pressure for: […]

IC50 | Substance
2.5 nM | IleCysProCysTyrArgLeuArgTyr-NH2,Cyclic (2,4'),(4,2')-Disulfide Dimer (chain 1 ICPCYRLRY-NH2; chain 2 ICPCYRLRY-NH2; disulfide (positions not given here); not fully specified (bridges))
2.5 nM | IleCysProCysTyrArgLeuArgTyr-NH2,Cyclic (2,2'),(4,4')-Disulfide Dimer (chain 1 ICPCYRLRY-NH2; chain 2 ICPCYRLRY-NH2; disulfide I:2-II:2, I:4-II:4; N-terminus assumed; SMILES CC[C@H](C)[C@H](N)C(=O)N[C@H]1CSSC[C@H](NC(=O)[C@@H](N)[C@@H](C)CC)C(=O)N2CCC[C@H]2C(=O)N[C@H](C(=O)N[C@@H](Cc2ccc(O)cc2)C(=O)N[C@@H](CCCNC(=N)N)C(=O)N[C@@H](CC(C)C)C(=O)N[C@@H](CCCNC(=N)N)C(=O)N[C@@H](Cc2ccc(O)cc2)C(N)=O)CSSC[C@@H](C(=O)N[C@@H](Cc2ccc(O)cc2)C(=O)N[C@@H](CCCNC(=N)N)C(=O)N[C@@H](CC(C)C)C(=O)N[C@@H](CCCNC(=N)N)C(=O)N[C@@H](Cc2ccc(O)cc2)C(N)=O)NC(=O)[C@@H]2CCCN2C1=O)
